Assay results as given in PubChem BioAssay (NCI).
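Growth conditions: 96-well plates. Treatment: test compound, 48 hours, 5 concentrations. Analysis: linear interpolation between bracketing concentrations; unreached endpoints set to highest concentration. TGI: total growth inhibition.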

Experiments:
Assay in all cases: NCI tumour cell line growth inhibition, 48 h
[1] = test system: RXF 393 renal
[2] = test system: DLD-1 colon
[3] = test system: SNB-78 CNS
[4] = test system: KM12 colon
[5] = test system: KM20L2 colon
[6] = test system: SF-539 CNS
[7] = test system: CAKI-1 renal
[8] = test system: LXFL 529 NSCLC
[9] = test system: M19-MEL melanoma
[10] = test system: DMS 273 small cell lung
[11] = test system: DMS 114 small cell lung
[12] = test system: SN12K1 renal
[13] = test system: HOP-18 NSCLC
[14] = test system: XF 498 CNS
[15] = test system: MDA-MB-435

| SMILES | TGI [1] | TGI [2] | TGI [3] | TGI [4] | TGI [5] | TGI [6] | TGI [7] | TGI [8] | TGI [9] | TGI [10] | TGI [11] | TGI [12] | TGI [13] | TGI [14] | TGI [15] |
| --- | --- | --- | --- | --- | --- | --- | --- | --- | --- | --- | --- | --- | --- | --- | --- |
| Cn1c(=O)n(C2(C)C[Se]C2)c2ccccc21 | > 100 µM | > 100 µM | > 100 µM | > 100 µM | > 100 µM | > 100 µM | > 100 µM | > 100 µM | > 100 µM | > 100 µM | – | – | – | – | – |
| O=C(O)CCC(NC(=O)c1ccc(Nc2nc3cc(C(F)(F)F)ccc3nc2-c2ccccc2)cc1)C(=O)O (stereo not given) | 94.8 µM | > 100 µM | > 100 µM | > 100 µM | 53.3 µM | > 100 µM | – | – | > 100 µM | 46.6 µM | > 100 µM | > 100 µM | > 100 µM | > 100 µM | – |
| NCc1ccccc1-c1c2nc(c(-c3ccccc3CN)c3ccc([nH]3)c(-c3ccccc3CN)c3nc(c(-c4ccccc4CN)c4ccc1[nH]4)C=C3)C=C2 | 43 µM | – | 40.9 µM | 50.7 µM | 63 µM | – | – | 46.5 µM | 50.7 µM | 46.4 µM | – | – | 8.81 µM | – | – |
| CN(C)CCC(=O)c1ccccc1 | 61.6 µM | 41 µM | 69 µM | > 61.4 µM | > 59.1 µM | > 70.3 µM | 40.5 µM | 44.7 µM | 52.7 µM | > 100 µM | > 56.2 µM | – | > 68.9 µM | 38.5 µM | – |
| Nc1nc(N)c2c3c(cnc2n1)CC(c1ccccc1)CC3 (stereo not given) | 47.9 µM | – | – | > 100 µM | – | > 100 µM | > 100 µM | – | – | – | – | – | – | – | > 100 µM |
| COc1ccc(C(OCC2OC(n3cc(C)c(=O)[nH]c3=O)CC2n2cc(Cn3cc(Cl)c(=O)[nH]c3=O)nn2)(c2ccccc2)c2ccccc2)cc1 (stereo not given) | > 100 µM | – | – | > 100 µM | – | > 100 µM | > 100 µM | – | – | – | – | – | – | – | > 100 µM |
| CC(OC(C)(C)C)[C@H](NC(=O)OCC(Cl)(Cl)Cl)C(=O)O (stereo not given in full) | > 100 µM | > 100 µM | > 100 µM | > 100 µM | > 100 µM | > 100 µM | > 100 µM | > 100 µM | > 100 µM | > 100 µM | > 100 µM | – | – | > 100 µM | – |
| CC#CCOC(=O)c1ccccc1OC(C)=O | > 100 µM | – | – | > 100 µM | – | > 100 µM | > 100 µM | – | – | – | – | – | – | – | > 100 µM |
| Cc1[nH]nc(C(F)(F)F)c1N=NN1CCOCC1 | 25.1 µM | – | – | 21.9 µM | – | 28.6 µM | 4.67 µM | – | – | – | – | – | – | – | 26 µM |
